From paper PMC5049494, “Nitrotriazole-based acetamides and propanamides with broad spectrum antitrypanosomal activity” (European Journal of Medicinal Chemistry, 2016)
Like-named read-outs stand apart in the source and are kept apart here.

Assays:
[1] = system: T.b. rhodesiense, strain STIB 900 trypomastigotes; test: In vitro activity against T. b. rhodesiense; format: cell-based; conditions: for SI (T.b.r.): IC50 in L6 cells/IC50 in T.b. rhodesiense; for anti-HAT activity class (TDR criteria): T. b. rhodesiense; for IC50: Trypanosoma brucei, T.b. rhodesiense STIB 900 trypomastigotes, means of 2 to 3 measurements, SD < 5%, read-out: T.b.r. IC50; for fold more potent against T. b. rhodesiense than the corresponding acetamide: propanamide vs acetamide analog
Protocol: (§1) Compounds in Table 1 were screened for anti-parasitic activity against three trypanosomatids: T. cruzi, T. b. rhodesiense and Leishmania donovani and compared with previously made analogs shown in orange and designated with a. […] In addition, compounds were tested for toxicity in L6 rat skeletal myoblasts, the host cells for T. cruzi amastigotes, in order to calculate a selectivity index for each parasite [SI = IC50L6/IC50parasite] (Table 1). The TDR (Special Programme for Research and Training in Tropical Diseases, World Health Organization) criteria were adopted to interpret antiparasitic activity and selectivity.
(§2) In vitro activity against T. cruzi, T. b. rhodesiense, L. donovani and cytotoxicity assessment using L6 cells (rat skeletal myoblasts) was determined using a 96-well plate format as previously described. Data were analyzed with the graphic program Softmax Pro (Molecular Devices, Sunnyvale, CA, USA), which calculated IC50 values by linear regression from the sigmoidal dose inhibition curves.

[2] = system: purified his-tagged recombinant TbNTR; test: Enzymatic activity with type I TbNTR; format: biochemical, T. brucei; conditions: substrate 100 μM, NADH 100 μM
Protocol: Enzyme specific activity was measured as oxidized NADH (nmol) per min per mg of protein. […] As we have reported before with other classes of 3-nitrotriazole-based antitrypanosomal compounds, no correlation between anti-HAT activity and TbNTR specific activity was observed, [13], [15], [16], [17], [18].
Recombinant TbNTR was prepared and assayed as previously described, [39]. The specific activity of purified his-tagged TbNTR was assessed spectrophotometrically at 340 nm using various nitrotriazole substrates (100 μM) and NADH (100 μM) and expressed as nmol NADH oxidized min^−1 mg^−1 of enzyme.

[3] = system: bloodstream form T.b. brucei wild type; test: T. brucei antiproliferating assay, wild type; format: cell-based; conditions: means from 4 experiments ± SD
Protocol: The BSF of T. brucei parasites were seeded at 1 × 10^3 mL^−1 in 200 μL of growth medium containing different concentrations of nitroheterocycle. Where appropriate, induction of the TbNTR was carried out by adding tetracycline (1 μg/mL). After incubation for 3 days at 37 °C, 20 μL of Alamar blue was added to each well and the plates incubated for a further 16 h. The cell density of each culture was determined as described before and the IC50 established.

[4] = system: T. cruzi, strain Tulahuen C4 amastigotes; test: In vitro activity against T. cruzi; format: cell-based; conditions: for SI (T. c.): IC50 in L6 cells/IC50 in T. cruzi; for IC50: Trypanosoma cruzi, T. cruzi Tulahuen C4 amastigotes, means of 2 to 3 measurements, SD < 5%, read-out: T. c. IC50; for Bnz/comp: fold antichagasic potency relative to Bnz (T. cruzi IC50 ratio)
Protocol: (§3) The concentration of compound that inhibits parasite growth by 50% (IC50) was calculated from dose response curves for each parasite (Table 1). In addition, compounds were tested for toxicity in L6 rat skeletal myoblasts, the host cells for T. cruzi amastigotes, in order to calculate a selectivity index for each parasite [SI = IC50L6/IC50parasite]
(§4) In vitro activity against T. cruzi, T. b. rhodesiense, L. donovani and cytotoxicity assessment using L6 cells (rat skeletal myoblasts) was determined using a 96-well plate format as previously described [37]. Data were analyzed with the graphic program Softmax Pro (Molecular Devices, Sunnyvale, CA, USA), which calculated IC50 values by linear regression from the sigmoidal dose inhibition curves.

[5] = Cytotoxicity in the host L6 cells; format: cell-based, rat; conditions: rat, L6 cells (rat skeletal myoblasts); cytotoxicity in host L6 cells; read-out: Cyt. L6 IC50
Protocol: as §1, §2

[6] = system: L. donovani axenic, strain MHOM-ET-67/L82 amastigotes; test: In vitro activity against L. donovani; format: cell-based; conditions: for SI (L.d.): IC50 in L6 cells/IC50 in L. donovani; for antileishmanial activity class (TDR criteria): L. donovani; for IC50: Leishmania donovani, L. donovani axenic amastigotes MHOM-ET-67/L82, means of 2 to 3 measurements, SD < 5%, read-out: L.d. IC50
Protocol: as §3, §4

[7] = system: bloodstream form T.b. brucei recombinant parasites expressing wild type (-tet) or elevated (+tet) levels of TbNTR; test: microbe, parasite or virus in culture; format: cell-based; conditions: Trypanosoma brucei
Protocol: The BSF of T. brucei parasites were seeded at 1 × 10^3 mL^−1 in 200 μL of growth medium containing different concentrations of nitroheterocycle. Where appropriate, induction of the TbNTR was carried out by adding tetracycline (1 μg/mL). After incubation for 3 days at 37 °C, 20 μL of Alamar blue was added to each well and the plates incubated for a further 16 h. The cell density of each culture was determined as described before [20] and the IC50 established.

[8] = system: transgenic T. cruzi parasites expressing firefly luciferase; format: in vivo, Balb/c mice; conditions: for parasite load after 10 days of treatment: acute murine model, p < 0.0001; for parasitic level after 5-day treatment: compared to untreated control
Protocol: A fast luminescence assay was used in an acute infected murine model, in which transgenic T. cruzi parasites expressing firefly luciferase were injected in 5 week-old Balb/c mice. Mice were injected with D-luciferin before imaging. Groups of 5 mice/group were treated i.p. for 10 consecutive days with each compound, at 13 or 15 mg/kg/day. […] The mean ratio of parasite levels was calculated after 5 and 10 days of treatment.
For in vivo studies, a Brazilian strain trypomastigotes from transgenic T. cruzi parasites expressing firefly luciferase were used as described before. Briefly, parasites (10^5 trypomastigotes) were injected in 5 week-old Balb/c mice (Taconic) and three days later mice were anesthesized by inhalation of isofluorane, followed by an injection with 150 mg/kg of D-luciferin potassium-salt in PBS. Mice were imaged 5–10 min after injection of luciferin with an IVIS 100 (Xenogen, Alameda, CA) and the data acquisition and analysis were performed with the software LivingImage (Xenogen) as described before. Treatment with test compounds started 4 days post infection at 13 or 15 mg/kg/day × 10 days, given i.p. The vehicle control was 2% methylcellulose +0.5% Tween 80 and groups of 5 mice/group were used. Mice were imaged after 5 and 10 days of treatment. The ratio of parasite levels was calculated for each animal dividing the luciferase signal after treatment by the luciferase signal on the first imaging (before treatment). Mean values of all animals in each group ± SD were used for plotting.

[9] = system: T.b. rhodesiense, strain STIB 900 trypomastigotes; parameters: method as in PMID 26344593, PMID 25580906; conditions: cited from earlier work
[10] = system: L6 cells (rat skeletal myoblasts); test: Cytotoxicity in the host L6 cells; format: cell-based; conditions: for fold less toxic towards L6 cells relative to unsubstituted compounds 10 and 10a: 9 vs 10, 9a vs 10a
Protocol: as §1, §2

[11] = system: L6 cells (rat skeletal myoblasts); parameters: method as in PMID 26344593, PMID 25580906; conditions: previously evaluated compounds (orange, designated a); read-out: Cyt. L6 IC50; cited from earlier work
[12] = Trypanosoma brucei, read-out: IC50 value T.b. brucei Wild type, bloodstream form
[13] = read-out: IC50 value T.b. brucei TbNTR (+tet)
[14] = read-out: IC50 value T.b. brucei TbNTR (-tet)
[15] = propanamide vs acetamide analog

With `O=C(Cn1cnc([N+](=O)[O-])n1)Nc1cc(-c2ccc(F)cc2)on1` [Compound 13, N-(5-(4-fluorophenyl)isoxazol-3-yl)-2-(3-nitro-1H-1,2,4-triazol-1-yl)acetamide] the “SI (T.b.r.)” value [1] was 25.1, the “anti-HAT activity class (TDR criteria)” value [1] was “inactive” and the IC50 [1] was 8 µM. The “TbNTR specific enzyme activity, fold greater than benznidazole” value [2] was ≤ 4 fold, the IC50 [3, 12] was 26.6 ± 6.02 µM and the melting point was > 220 °C. For the same molecule, the “SI (T. c.)” value [4] was 590, the IC50 [4] was 0.34 µM and the Bnz/comp [4] was 6.5. The IC50 [5] was 201 µM, the “SI (L.d.)” value [6] was 20.5 and the “antileishmanial activity class (TDR criteria)” value (“antileishmanial activity class” for short) [6] was “inactive”. The IC50 [6] was 9.79 µM.

For `O=C(CCn1cnc([N+](=O)[O-])n1)Nc1ccc(Oc2ccc(Cl)cc2)cc1` [Compound 6, N-(4-(4-chlorophenoxy)phenyl)-3-(3-nitro-1H-1,2,4-triazol-1-yl)propanamide], the “SI (T.b.r.)” value [1] was 418, the IC50 [1] was 0.041 µM and the “fold more potent against T. b. rhodesiense than the corresponding acetamide” value [1] was 32 fold. The IC50 [7, 13] was 0.34 µM, the IC50 [7, 14] was 0.62 ± 0.03 µM and the “TbNTR specific enzyme activity, fold greater than benznidazole” value [2] was ≤ 4 fold. The IC50 [3, 12] was ~0.65 µM, the IC50 ([3]; read-out: IC50 value T.b. brucei Wild type, bloodstream form) was 0.64 ± 0.02 µM and the “SI (T. c.)” value [4] was 3343. For the same molecule, the IC50 [4] was 0.005 µM, the Bnz/comp [4] was 441 and the “toxicity symptoms in treated mice” value ([8]; 13 mg/kg/day i.p. x 10 days) was “did not look very healthy, although no deaths occurred”. For the same molecule, the “parasite load after 10 days of treatment” value ([8]; 13 mg/kg/day i.p. x 10 days) was “undetectable levels”, the “parasitic level after 5-day treatment” value ([8]; 13 mg/kg/day i.p.) was “Statistically significant reduction in parasitic level” and the IC50 [5] was 17.3 µM. It also gave an IC50 [6] of 1.15 µM.

For `N#Cc1ccc(-c2ccc(NC(=O)Cn3cnc([N+](=O)[O-])n3)cc2)cc1` [Compound 9a], the “anti-HAT activity class (TDR criteria)” value ([9]; T. b. rhodesiense, previously evaluated acetamides) is listed as “active”, the IC50 ([9]; previously evaluated compounds (orange, designated a), read-out: T.b.r. IC50) is listed as 0.336 µM and the “fold less toxic towards L6 cells relative to unsubstituted compounds 10 and 10a” value [10] is listed as > 3.5 fold. For the same molecule, the IC50 [11] was 165 µM.

With `N#Cc1ccc(-c2ccc(NC(=O)CCn3cnc([N+](=O)[O-])n3)cc2)cc1` [Compound 9, N-(4′-cyano-[1,1′-biphenyl]-4-yl)-3-(3-nitro-1H-1,2,4-triazol-1-yl)propanamide] the “SI (T.b.r.)” value [1] was 2527, the IC50 [1] was 0.091 µM and the “fold more potent against T. b. rhodesiense than the corresponding acetamide” value [1] was 3.7 fold. For the same molecule, the IC50 [7, 13] was 0.12 ± 0.01 µM, the IC50 [7, 14] was 0.55 ± 0.04 µM and the IC50 [3, 12] was 0.12 ± 0.01 µM. For the same molecule, the “SI (T. c.)” value [4] was 2453, the IC50 [4] was 0.094 µM and the Bnz/comp [4] was 23. The “fold more potent against T. cruzi than the acetamide analog” value [4, 15] was “about 1.5 fold”, the “toxicity symptoms in treated mice” value ([8]; 15 mg/kg/day i.p. x 10 days) was “No toxicity symptoms were observed” and the “parasite load after 10 days of treatment” value ([8]; 15 mg/kg/day i.p. x 10 days) was “undetectable levels”. The “parasitic level after 5-day treatment” value ([8]; 15 mg/kg/day i.p.) was “Statistically significant reduction in parasitic level”, the IC50 [5] was 230 µM and the “fold less toxic towards L6 cells relative to unsubstituted compounds 10 and 10a” value [10] was > 6 fold. For the same molecule, the “SI (L.d.)” value [6] was 73, the “antileishmanial activity class” value [6] was “moderately active (‘moderate activity’ (IC50 between 1.0 and 6.0 μM))” and the IC50 [6] was 3.17 µM.

In the case of `O=C(Cn1cnc([N+](=O)[O-])n1)Nc1cc(-c2ccc(Cl)cc2)no1` [Compound 15, N-(3-(4-chlorophenyl)isoxazol-5-yl)-2-(3-nitro-1H-1,2,4-triazol-1-yl)acetamide], the “anti-HAT activity class (TDR criteria)” value [1] is reported as “inactive”, the IC50 [1] is reported as 15.1 µM and the IC50 [7, 13] is reported as 1.23 ± 0.06 µM. For the same molecule, the IC50 [7, 14] was 13.3 ± 1.4 µM, the “substrate of TbNTR / rate of metabolism” value [2] was “equivalent rates” and the IC50 [3, 12] was 8.65 ± 0.49 µM. For the same molecule, the IC50 [4] was 1.53 µM, the Bnz/comp [4] was 1.4 and the IC50 [5] was 112 µM. For the same molecule, the “antileishmanial activity class” value [6] was “inactive” and the IC50 [6] was 12.5 µM.

In the case of `O=C(CCn1cnc([N+](=O)[O-])n1)Nc1cccc(OCc2ccccc2)c1` [Compound 11, N-(3-(benzyloxy)phenyl)-3-(3-nitro-1H-1,2,4-triazol-1-yl)propanamide], the “SI (T.b.r.)” value [1] is reported as 182, the IC50 [1] is reported as 0.221 µM and the “fold more potent against T. b. rhodesiense than the corresponding acetamide” value [1] is reported as 22 fold. The IC50 [7, 13] was 0.36 ± 0.02 µM, the IC50 [7, 14] was 3.7 ± 0.58 µM and the “TbNTR specific enzyme activity, fold greater than benznidazole” value [2] was ≤ 4 fold. The IC50 [3, 12] was 4.25 ± 0.16 µM, the melting point was 119 to 120 °C and the “SI (T. c.)” value [4] was 868. It also gave an IC50 [4] of 0.046 µM, a Bnz/comp [4] of 48 and an IC50 [5] of 40.2 µM. The “SI (L.d.)” value [6] was 35, the “antileishmanial activity class” value [6] was “moderate activity” and the IC50 [6] was 1.14 µM. For the same molecule, the “fold more potent against L. donovani than the acetamide analog” value [6, 15] was “ca. 3 fold”.

With `O=C(CCn1cnc([N+](=O)[O-])n1)Nc1cc(-c2ccc(Cl)cc2)no1` [Compound 14, N-(3-(4-chlorophenyl)isoxazol-5-yl)-3-(3-nitro-1H-1,2,4-triazol-1-yl)propanamide] the “anti-HAT activity class (TDR criteria)” value [1] was “moderately active (IC50 between 0.5 and 6.0 μM)”, the IC50 [1] was 0.651 µM and the IC50 [7, 13] was 0.29 ± 0.02 µM. The IC50 [7, 14] was 0.91 ± 0.03 µM, the “substrate of TbNTR / rate of metabolism” value [2] was “equivalent rates” and the IC50 [3, 12] was 0.27 ± 0.05 µM. For the same molecule, the IC50 [4] was 0.251 µM, the Bnz/comp [4] was 9 and the IC50 [5] was 179 µM. The “antileishmanial activity class” value [6] was “moderately active (‘moderate activity’ (IC50 between 1.0 and 6.0 μM))” and the IC50 [6] was 2.95 µM.

For `CN(C(=O)Cn1cnc([N+](=O)[O-])n1)c1ccc(C(F)(F)F)cc1` [Compound 2, N-methyl-2-(3-nitro-1H-1,2,4-triazol-1-yl)-N-(4-(trifluoromethyl)phenyl)acetamide], the “anti-HAT activity class (TDR criteria)” value [1] was “inactive”, the IC50 [1] was 37.4 µM and the melting point was 133 to 134 °C. The “SI (T. c.)” value [4] was ~165, the IC50 [4] was 1.54 µM and the “fold decrease in antichagasic activity compared to 2a” value ([4]; compared with 2a) was 1.6 fold. The “fold more potent towards T. cruzi amastigotes than 2-nitroimidazole counterpart 3” value ([4]; compared with 3) was 32 fold, the Bnz/comp [4] was 1.4 and the IC50 [5] was 254 µM. For the same molecule, the “fold decrease in toxicity against L6 cells compared to 2a” value ([10]; compared with 2a) was 2 fold and the IC50 [6] was 47.7 µM.
